Our source for the Activity and inhibition values is ChEMBL document CHEMBL3046822, “Synthesis, antiplatelet aggregation activity, and molecular modeling study of novel substituted-piperazine analogues” (2011).

The source made the active and inactive calls. The calls are words filed in the database; no cut-off is given here.

Experiment [1] is described as follows: Antiaggregating activity in Homo sapiens (human) platelet rich plasma assessed as collagen-induced platelet aggregation at 1 uM incubated for 4 min prior to collagen-induction measured for 5.5 min by turbidometric analysis (reference value: 50 to 98%). The class given is functional.
Experiment [2] is described as follows: Antiaggregating activity in Homo sapiens (human) platelet rich plasma assessed as adrenaline-induced platelet aggregation at 2 uM incubated for 4 min prior to adrenaline-induction measured for 5.5 min by turbidometric analysis (reference value: 65 to 100%). The class given is functional.
Experiment [3] in a line: Antiaggregating activity in Homo sapiens (human) platelet rich plasma assessed as disaggregation of ADP-induced platelet aggregation at 5 uM incubated for 4 min prior to ADP-induction measured for 5.5 min by turbidometric analysis relative to control. The class given is functional.
Experiment [4] is described as follows: Antiaggregating activity in Homo sapiens (human) platelet rich plasma assessed as ADP-induced platelet aggregation at 1 uM incubated for 4 min prior to ADP-induction measured for 5.5 min by turbidometric analysis (reference value: 54 to 88%). Format: functional.
Experiment [5] in a line: Antiaggregating activity in Homo sapiens (human) platelet rich plasma assessed as arachidonic acid-induced platelet aggregation at 1 uM incubated for 4 min prior to arachidonic acid-induction measured for 5.5 min by turbidometric analysis (reference value: 55 to 100%). The class given is functional.
In experiment [6] the test system is Platelet. Kind of experiment: Antiaggregating activity in Homo sapiens (human) platelet rich plasma assessed as inhibition of adrenaline-induced platelet aggregation at 5 uM incubated for 4 min prior to adrenaline-induction measured for 5.5 min by turbidometric analysis. The class given is functional, cell-free.
Experiment [7] in a line: Antiaggregating activity in Homo sapiens (human) platelet rich plasma assessed as disaggregation of arachidonic acid-induced platelet aggregation at 2 uM incubated for 4 min prior to arachidonic acid-induction measured for 5.5 min by turbidometric analysis relative to control. The class given is functional.
Experiment [8] is described as follows: Antiaggregating activity in Homo sapiens (human) platelet rich plasma assessed as ristocetin-induced platelet aggregation at 5 uM incubated for 4 min prior to ristocetin-induction measured for 5.5 min by turbidometric analysis (reference value: 65 to 99%). Format: functional.
Experiment [9] is described as follows: Antiaggregating activity in Homo sapiens (human) platelet rich plasma assessed as ristocetin-induced platelet aggregation at 1 uM incubated for 4 min prior to ristocetin-induction measured for 5.5 min by turbidometric analysis (reference value: 65 to 99%). Format: functional.
The nature of experiment [10]: Antiaggregating activity in Homo sapiens (human) platelet rich plasma assessed as collagen-induced platelet aggregation at 2 uM incubated for 4 min prior to collagen-induction measured for 5.5 min by turbidometric analysis (reference value: 50 to 98%). Format: functional.
A short description of experiment [11]: Antiaggregating activity in Homo sapiens (human) platelet rich plasma assessed as ristocetin-induced platelet aggregation at 2 uM incubated for 4 min prior to ristocetin-induction measured for 5.5 min by turbidometric analysis (reference value: 65 to 99%). The class given is functional.
The test system of experiment [12] is Platelet. Kind of experiment: Antiaggregating activity in Homo sapiens (human) platelet rich plasma assessed as inhibition of collagen-induced platelet aggregation at 5 uM incubated for 4 min prior to collagen-induction measured for 5.5 min by turbidometric analysis. Format: functional, cell-free.
Experiment [13] in a line: Antiaggregating activity in Homo sapiens (human) platelet rich plasma assessed as ADP-induced platelet aggregation at 2 uM incubated for 4 min prior to ADP-induction measured for 5.5 min by turbidometric analysis (reference value: 54 to 88%). Format: functional.
Experiment [14] in a line: Antiaggregating activity in Homo sapiens (human) platelet rich plasma assessed as adrenaline-induced platelet aggregation at 1 uM incubated for 4 min prior to adrenaline-induction measured for 5.5 min by turbidometric analysis (reference value: 65 to 100%). The class given is functional.
Experiment [15] relates to Platelet. Kind of experiment: Antiaggregating activity in Homo sapiens (human) platelet rich plasma assessed as inhibition of arachidonic acid-induced platelet aggregation at 5 uM incubated for 4 min prior to arachidonic acid-induction measured for 5.5 min by turbidometric analysis. The class given is functional, cell-free.
Experiment [16] deals with Platelet. Kind of experiment: Antiaggregating activity in Homo sapiens (human) platelet rich plasma assessed as inhibition of collagen-induced platelet aggregation at 50 uM incubated for 4 min prior to collagen-induction measured for 5.5 min by turbidometric analysis. Format: functional, cell-free.
The nature of experiment [17]: Antiaggregating activity in Homo sapiens (human) platelet rich plasma assessed as collagen-induced platelet aggregation at 10 uM incubated for 4 min prior to collagen-induction measured for 5.5 min by turbidometric analysis (reference value: 50 to 98%). The class given is functional.
Experiment [18] can be described thus: Antiaggregating activity in Homo sapiens (human) platelet rich plasma assessed as adrenaline-induced platelet aggregation at 10 uM incubated for 4 min prior to adrenaline-induction measured for 5.5 min by turbidometric analysis (reference value: 65 to 100%). The class given is functional.
The nature of experiment [19]: Antiaggregating activity in Homo sapiens (human) platelet rich plasma assessed as arachidonic acid-induced platelet aggregation at 10 uM incubated for 4 min prior to arachidonic acid-induction measured for 5.5 min by turbidometric analysis (reference value: 55 to 100%). The class given is functional.
Experiment [20] relates to Platelet. Kind of experiment: Antiaggregating activity in Homo sapiens (human) platelet rich plasma assessed as inhibition of arachidonic acid-induced platelet aggregation at 50 uM incubated for 4 min prior to arachidonic acid-induction measured for 5.5 min by turbidometric analysis. The class given is functional, cell-free.
Experiment [21] has as its system Platelet. Kind of experiment: Antiaggregating activity in Homo sapiens (human) platelet rich plasma assessed as inhibition of ADP-induced platelet aggregation at 50 uM incubated for 4 min prior to ADP-induction measured for 5.5 min by turbidometric analysis. The class given is functional, cell-free.
Experiment [22] in a line: Antiaggregating activity in Homo sapiens (human) platelet rich plasma assessed as ristocetin-induced platelet aggregation at 10 uM incubated for 4 min prior to ristocetin-induction measured for 5.5 min by turbidometric analysis (reference value: 65 to 99%). The class given is functional.
Experiment [23] can be described thus: Antiaggregating activity in Homo sapiens (human) platelet rich plasma assessed as ristocetin-induced platelet aggregation at 50 uM incubated for 4 min prior to ristocetin-induction measured for 5.5 min by turbidometric analysis (reference value: 65 to 99%). The class given is functional.
Experiment [24] has as its system Platelet. Kind of experiment: Antiaggregating activity in Homo sapiens (human) platelet rich plasma assessed as inhibition of adrenaline-induced platelet aggregation at 50 uM incubated for 4 min prior to adrenaline-induction measured for 5.5 min by turbidometric analysis. The class given is functional, cell-free.
Experiment [25] is described as follows: Antiaggregating activity in Homo sapiens (human) platelet rich plasma assessed as ADP-induced platelet aggregation at 10 uM incubated for 4 min prior to ADP-induction measured for 5.5 min by turbidometric analysis (reference value: 54 to 88%). Format: functional.
A short description of experiment [26]: Antiaggregating activity in Homo sapiens (human) platelet rich plasma assessed as ADP-induced platelet aggregation at 0.25 uM incubated for 4 min prior to ADP-induction measured for 5.5 min by turbidometric analysis (reference value: 54 to 88%). Format: functional.
Experiment [27] relates to Platelet. Kind of experiment: Antiaggregating activity in Homo sapiens (human) platelet rich plasma assessed as inhibition of ristocetin-induced platelet aggregation at 2 uM incubated for 4 min prior to ristocetin-induction measured for 5.5 min by turbidometric analysis. Format: functional, cell-free.
Experiment [28] in a line: Antiaggregating activity in Homo sapiens (human) platelet rich plasma assessed as adrenaline-induced platelet aggregation at 0.25 uM incubated for 4 min prior to adrenaline-induction measured for 5.5 min by turbidometric analysis (reference value: 65 to 100%). The class given is functional.
Experiment [29] concerns Platelet. Kind of experiment: Antiaggregating activity in Homo sapiens (human) platelet rich plasma assessed as inhibition of collagen-induced platelet aggregation at 1 uM incubated for 4 min prior to collagen-induction measured for 5.5 min by turbidometric analysis. Format: functional, cell-free.
Experiment [30] in a line: Antiaggregating activity in Homo sapiens (human) platelet rich plasma assessed as inhibition of arachidonic acid-induced platelet aggregation at 0.5 uM incubated for 4 min prior to arachidonic acid-induction measured for 5.5 min by turbidometric analysis. Also on record: scale not given: the % may be the effect or the level left. The class given is functional.
Experiment [31] relates to Platelet. Kind of experiment: Antiaggregating activity in Homo sapiens (human) platelet rich plasma assessed as inhibition of arachidonic acid-induced platelet aggregation at 1 uM incubated for 4 min prior to arachidonic acid-induction measured for 5.5 min by turbidometric analysis. The class given is functional, cell-free.
Experiment [32] relates to Platelet. Kind of experiment: Antiaggregating activity in Homo sapiens (human) platelet rich plasma assessed as inhibition of arachidonic acid-induced platelet aggregation at 2 uM incubated for 4 min prior to arachidonic acid-induction measured for 5.5 min by turbidometric analysis. Format: functional, cell-free.
In experiment [33] the test system is Platelet. Kind of experiment: Antiaggregating activity in Homo sapiens (human) platelet rich plasma assessed as inhibition of collagen-induced platelet aggregation at 2 uM incubated for 4 min prior to collagen-induction measured for 5.5 min by turbidometric analysis. Format: functional, cell-free.
Experiment [34] has as its system Platelet. Kind of experiment: Antiaggregating activity in Homo sapiens (human) platelet rich plasma assessed as inhibition of adrenaline-induced platelet aggregation at 2 uM incubated for 4 min prior to adrenaline-induction measured for 5.5 min by turbidometric analysis. Format: functional, cell-free.
For experiment [35], the system named is Platelet. Kind of experiment: Antiaggregating activity in Homo sapiens (human) platelet rich plasma assessed as inhibition of ADP-induced platelet aggregation at 2 uM incubated for 4 min prior to ADP-induction measured for 5.5 min by turbidometric analysis. Format: functional, cell-free.
Experiment [36] relates to Platelet. Kind of experiment: Antiaggregating activity in Homo sapiens (human) platelet rich plasma assessed as inhibition of adrenaline-induced platelet aggregation at 1 uM incubated for 4 min prior to adrenaline-induction measured for 5.5 min by turbidometric analysis. Format: functional, cell-free.
Experiment [37] is described as follows: Antiaggregating activity in Homo sapiens (human) platelet rich plasma assessed as ristocetin-induced platelet aggregation at 0.25 uM incubated for 4 min prior to ristocetin-induction measured for 5.5 min by turbidometric analysis (reference value: 65 to 99%). The class given is functional.
Experiment [38] in a line: Antiaggregating activity in Homo sapiens (human) platelet rich plasma assessed as disaggregation of ADP-induced platelet aggregation at 1 uM incubated for 4 min prior to ADP-induction measured for 5.5 min by turbidometric analysis relative to control. The class given is functional.
Experiment [39] can be described thus: Antiaggregating activity in Homo sapiens (human) platelet rich plasma assessed as inhibition of collagen-induced platelet aggregation at 0.25 uM incubated for 4 min prior to collagen-induction measured for 5.5 min by turbidometric analysis. Also on record: scale not given: the % may be the effect or the level left. Format: functional.

For the molecule `O=C(c1ccc[n+](Cc2ccc(C[n+]3cccc(C(=O)N4CCN(c5ccccc5Cl)CC4)c3)cc2)c1)N1CCN(c2ccccc2Cl)CC1.[Br-].[Br-]`, the Activity in experiment [1] was 84%; in [2], 21%; in [3], 13%; in [4] it was 91%; in experiment [5] it was 40%; in experiment [7], 16%. Moreover, the Activity turned out to be 51% in experiment [8]; 78% in experiment [9]; 26% in experiment [10]; 65% in experiment [11]; 79% in [13]; 22% in [14]. Besides, the inhibition entry in [6], in experiment [12] and in [15] was “Active” throughout.

`O=C(c1ccc[n+](Cc2ccc(C[n+]3cccc(C(=O)N4CCN(c5ncccn5)CC4)c3)cc2)c1)N1CCN(c2ncccn2)CC1.[Br-].[Br-]`: the Activity in [1] worked out at 73%; in experiment [17], 82%; in experiment [18] it was 28%; in experiment [4] it was 70%; in experiment [19], 71%; in [5], 70%. Besides, the Activity was 82% in experiment [22]; 78% in experiment [9]; 73% in [23]; 71% in experiment [25]; 73% in [14]. Also, the inhibition result in experiment [16], in [20], in experiment [21] and in experiment [24] was “Active” in each case.

As to `O=C(c1ccc[n+](Cc2ccccc2)c1)N1CCN(C(=O)c2ccc[n+](Cc3ccccc3)c2)CC1.[Cl-].[Cl-]`, the Activity was 28% in experiment [26]; 66% in experiment [28]; 71% in experiment [30]; 73% in [9]; 80% in [37]; 25% in [38]. Further, in experiment [39], the Activity is listed as 79%. Moreover, the inhibition entry in experiment [27], in experiment [29], in experiment [31], in [32], in experiment [33] and in experiment [34] was “Active” throughout. For the same molecule, the inhibition entry in experiment [35] and in experiment [36] was “Active” throughout.
